Measured values: patent US7148009B2, “Cancer drug screen based on cell cycle uncoupling” (The Johns Hopkins University, priority 1996, dated 2006)

Key:
[1] = system: HCT116 cells with (+/+) p21 genes; test: Apoptosis after drug treatment (phase contrast, H33258 staining, TUNEL), parental cells; type: cell-based, human; conditions: for cell fate (apoptosis) by phase contrast microscopy and H33258 staining: etoposide 5 ug/ml, camptothecan 0.1 ug/ml, time course
Experimental: (§1) HCT116 cells with (+/+) or without (−/−) p21 genes were generated by homologous recombination. Logarithmically-growing cells in McCoy's 5A medium with 10% fetal calf serum were treated with Adriamycin (0.2 ug/ml) for 90 hours. In FIG. 1b, the adherent cells were harvested by trypsinization and combined with cells floating in the media. After washing with Hanks Buffered Saline (HBS; Life Technologies), cells were resuspended in 40 ul HBS and added to 360 ul of a solution containing 0.7% NP-40, 4.7% formaldehyde and 11 ug/ml H133258 in phosphate buffered saline (PBS). Cells were then viewed under UV excitation and photographed with a Nikon Labophot microscope. In FIG. 1c, adherent cells were fixed in 1% formaldehyde, then incubated in the presence of exogenous terminal transferase and biotin-11-dUTP as previously described^7. Labeled cells were detected by immunoperoxidase staining (Vector).
(§2) Cells were grown, fixed, and stained as described in Example 1. Irradiation was delivered at 1 Gy/minute using a ^137Cs source. Apoptotic cells were recognized as condensed, punctate nuclei (examples in FIG. 1d) or ghosts with faintly stained, degrading nuclei. At least 200 cells were counted for each time point, and the experiment was repeated with results virtually identical to those shown. The error bars represent the Poisson standard deviation determined by taking the square root of counted events and converting it to percent abundance. All counting was done in a blinded fashion. The (+/−) cells contained one normal p21 allele and one allele deleted by homologous recombination^5.

[2] = system: HCT116 (+/−) cells, one normal p21 allele and one deleted; test: Apoptosis after drug treatment, heterozygous cells; type: cell-based, human; conditions: Adriamycin 0.2 ug/ml, etoposide 5 ug/ml, camptothecan 0.1 ug/ml
Experimental: as §1, §2

[3] = system: HCT116 cells without (−/−) p21 genes; test: Apoptosis after drug treatment (phase contrast, H33258 staining, TUNEL), p21-deficient cells; type: cell-based, human
Experimental: as §1
Cells were grown, fixed, and stained as described in Example 1. Irradiation was delivered at 1 Gy/minute using a ^137Cs source. Apoptotic cells were recognized as condensed, punctate nuclei (examples in FIG. 1d) or ghosts with faintly stained, degrading nuclei. […] The error bars represent the Poisson standard deviation determined by taking the square root of counted events and converting it to percent abundance. All counting was done in a blinded fashion. The (+/−) cells contained one normal p21 allele and one allele deleted by homologous recombination^5.

HCT116 p21+/+ cells = test: Cell cycle analysis by flow cytometry, parental cells; conditions: Adriamycin 0.2 ug/ml
HCT116 p21−/− cells = test: Cell cycle analysis by flow cytometry, p21-deficient cells; conditions: Adriamycin 0.2 ug/ml
[4] = longer treatments (beyond 30 hours)
[5] = p21−/− cells, Adriamycin 0.2 ug/ml, 90 hours

Row | SMILES | cell fate (apoptosis) by phase contrast microscopy and H33258 staining [1] | kinetics of apoptosis compared with parental cells [2] | cell fate (apoptosis) by phase contrast microscopy and H33258 staining ([3]; p21−/− cells, etoposide 5 ug/ml, time course) | cell morphology, phase contrast microscopy ([1]; Adriamycin 0.2 ug/ml, 90 hours) | nuclear morphology after H33258 staining ([1]; Adriamycin 0.2 ug/ml, 90 hours) | cell cycle distribution by flow cytometry (HCT116 p21+/+ cells; 30 hours of exposure) | flow cytometry profile (HCT116 p21+/+ cells; [4]) | cell cycle distribution by flow cytometry (HCT116 p21−/− cells; 30 hours of exposure) | DNA content by flow cytometry (HCT116 p21−/− cells; [4]) | response in a second, independently isolated p21−/− clone ([3]; Adriamycin 0.2 ug/ml, time course of apoptosis) | TUNEL staining of DNA breaks characteristic of apoptosis [3, 5] | cell morphology, phase contrast microscopy [3, 5] | nuclear morphology after H33258 staining [3, 5]
1 | COc1cc([C@@H]2c3cc4c(cc3[C@@H](O[C@@H]3O[C@@H]5CO[C@@H](C)O[C@H]5[C@H](O)[C@H]3O)[C@H]3COC(=O)[C@H]23)OCO4)cc(OC)c1O [etoposide] | remained healthy | behaved similarly to the parental cells | died |  |  |  |  |  |  |  |  |  | 
2 | COc1cccc2c1C(=O)c1c(O)c3c(c(O)c1C2=O)C[C@@](O)(C(=O)CO)C[C@@H]3O[C@H]1C[C@H](N)[C@H](O)[C@H](C)O1 [Adriamycin] |  | behaved similarly to the parental cells |  | remained attached to the plate and appeared morphologically normal | homogeneous and round | blocked in G1 and G2 phases, with few cells in S | remained largely unchanged | a nearly pure population of G2-arrested cells was observed | began to accumulate DNA in excess of 4C, then died | identical | stained intensely by TUNEL | shrank, rounded, and detached from the dish, suggesting apoptosis | classic condensed and punctate nuclear morphology
3 | CC[C@@]1(O)C(=O)OCc2c1cc1n(c2=O)Cc2cc3ccccc3nc2-1 [camptothecan] | eventually underwent apoptosis, but this was significantly delayed compared to p21-deficient cells | revealed a heterozygote effect |  |  |  |  |  |  |  |  |  |  | 
